For assay [1], the system named is A549 lung cancer cells. Briefly: A549 viability (crystal violet). In kind it is cell-based. Particulars: 24 hours. As to the method: A549 lung cancer cells were plated at different concentrations of cell per well in a 96-well plate. On the following day cells were treated with increasing doses of OGM2. Twenty-four hours later cells viability was assayed with crystal violet and normalized to untreated.

For assay [2], the system named is Prostatic Neuroendocrine cancer (PNEC: PC3). Briefly: viability (cell titer blue), prostate cancer cells. The conditions noted are these: PC3, 72 hours. The assay is classed as cell-based. As to the method: (§1) Multiple studies were conducted as discussed herein, but with different cancer type cohorts. Data was extracted from Gene expression omnibus using ProggeneV2. Briefly, probes were prepared using standard Affymetrix™ protocols, and hybridized to Affymetrix™ HG-U133A and HG-U133B arrays. The cohort was separated by High and low expression of GPR68 by above or below the median expression level. Survival of the cohorts was plotted in FIG. 26A. Survival of multiple cancer types including breast (MDA MB231), glioblastoma (U87), and Prostatic Neuroendocrine cancer (PNEC: PC3) is shown in FIG. 26B. Cells were plated in 96-well plates and then treated with increasing doses OGM2. Seventy-two hours later, survival was assayed with cell titer blue. Each cell line was normalized to DMSO treated control.

A further assay relates to WM115 melanoma cell line. Briefly: scratch assay for migration, WM115. Particulars: OGM 5 μM, EIPA 10 μM, 20 hours. In kind it is cell-based, human. As to the method:
(§2) Cells were grown to confluence and the cells were denuded with a P200 tip. A medium change was done to add fresh medium, remove loose cells and add compounds OGM (5 μM) and EIPA (10 μM). The area of the scratch was observed 20 hours later.
(§3) Since there are numerous parallels are found between neural crest cells and cancer during migration, we examined whether OGM could inhibit the migration of cells in human melanoma cell lines (Oppitz et al., 2007; Schriek et al., 2005; Sinnberg et al., 2018). […] A2058, MeWo and WM115 cells were grown to confluence and a stripe of cells were denuded with a p200 pipette tip “scratch” and rinsed with PBS. Cells were treated with OGM or EIPA, or DMSO and incubated in low serum media. Imaging was done at 30 minutes after “scratch” and then 20 hours afterwards. Areas were then measured and normalized to the initial area.
(§4) Previous studies with the MV3 melanoma cell line have shown that disruption of proton efflux with EIPA inhibition of NHE1 can also reduce melanoma motility (Ludwig et al., 2013; Schneider et al., 2009; Stock et al., 2007, 2005; Stüwe et al., 2007). […] Although the expression of GPR68 and other proton-sensing receptors have been characterized in various skin cancers (Merkel cell carcinoma, dermatofibrosarcoma protuberans, atypical fibroxanthoma, and pleomorphic dermal sarcoma), expression in melanoma cell lines has not investigated (Nassios et al., 2019).

In another assay the test system is MeWo melanoma cell line. Briefly: scratch assay for migration, MeWo. In kind it is cell-based, human. Particulars: OGM 5 μM, EIPA 10 μM, 20 hours. The procedure: as §2, §3, §4
The target in assay [3] is T1, GPR68 (Homo sapiens (Human), UniProt Q15743). Nature of the assay: Chem-1 OGR1/GPR68 recovery assay after inhibitor washout. In kind it is cell-based. As to the method:
Chem-1 OGR1/GPR68 cells from Millipore™ (St. Louis, MO) were plated in 96-well format and stained with Fluo-8. Using the Lionheart FX (Biotek™) a baseline for 3 seconds was observed before the medium was acidified using an automated injector to reach pH 6.8. Cells then were dynamically monitored and change in fluorescence was quantified using Gen5 software (Biotek™). Pretreatment of 10 μM OGM2 for 4 hours was used. Each well was only assayed once at the correct time interval after inhibitor removal.
(§5) Chem1-GPR68 reporter cells were treated with 20 uM OM8345 for 2 hours and then rinsed with HBSS. […] The GPR68 inhibitory activity of OGM analogs segregated with the ability of the molecule to induce the phenotype in zebrafish. Neural crest progenitors labeled with In situ hybridization of FoxD3 show normal formation of the progenitor pool.
Additional experiments, OGM2 resynthesized and used (due to its submicromolar potency and GPR68 specificity) were performed. See FIG. 3A (HNMR of resynthesis of OGM2) and FIG. 3B (LCMS of resynthesis of OGM2). To test the possibility of OGM2 being an irreversible inhibitor, Chem1-OGR1 cells (Millipore™) were incubated with 10 μM OGM2 for 4 hours, and after removing the compound stimulated with pH 6.4 medium. […] Time till 50% max ˜52 minutes. The signal returned back towards baseline uninhibited levels in a rapid and time-dependent manner.

In assay [4] the target is T1, GPR68. Nature of the assay: GPR68 inhibitory activity of OGM analogs (Table 5). In kind it is cell-based. As to the method: GPCR profiling assays were performed by Millipore (St. Louis, MO) using in cells expressing Gα15, a promiscuous G protein that enhances GPCR coupling to downstream Ca2+ signaling pathways.
Since GPCRs represent >30% of targets for FDA-approved small molecules and are known to modulate cell migration, activity against 158 GPCRs was assessed based on their chemical structures. GPCRs (158) were tested for agonist and antagonist activity at 10 μM. […] Chemical segregation analysis of zebrafish phenotype was conducted to further identify the inhibitory activity responsible for the zebrafish phenotype. […] The identities of the R groups in FIG. 2B are shown below in Table 5.
as §5

For another assay, the system named is U87 cells. Nature of the assay: U87 viability with temozolomide plus OGM2. In kind it is cell-based. Particulars: 0.5 μM or 5 μM OGM2 with increasing TMZ. The procedure:
U87 cells were treated with increasing concentrations of temozolomide (TMZ) without OGM2 or with 0.5 μM or 5 μM OGM2.

The next assay deals with GPR68/OGR1 (Homo sapiens (Human), UniProt Q15743). Nature of the assay: inhibition of GPR68/OGR1 in CHEM1-OGR1 cells, Fluo-8 calcium response to acidified media. In kind it is cell-based. The conditions noted are these: acidified media pH 6.4, Fluo-8. As to the method: Briefly, the methods were: On the day before the assay 20,000 cells per well of CHEM1-OGR1 cells were plated in 10% DMEM containing 10% FBS and 1% Pen/Strep into a 96 well plate. After 24 hours media was removed and cells were stained with 80 uL Fluo-8 calcium indicator dye according to manufacturer's protocol. After staining cells were treated with 20 uL of 4× concentration of test compounds. Using kinetic imaging in the Lionheart HCS fluorescence intensity was continuously measure at 10 frames per second, for 5 seconds before 100 μL of acidified media was added to the well resulting in a pH of 6.4. A ratio of fluorescence intensities prior to addition and at peak were calculated and averaged. The resulting data were platted and using a 4 parameter logistic regression EC50 for each test compound was determined.
Chain of GPR68/OGR1 (Q15743 whole entry): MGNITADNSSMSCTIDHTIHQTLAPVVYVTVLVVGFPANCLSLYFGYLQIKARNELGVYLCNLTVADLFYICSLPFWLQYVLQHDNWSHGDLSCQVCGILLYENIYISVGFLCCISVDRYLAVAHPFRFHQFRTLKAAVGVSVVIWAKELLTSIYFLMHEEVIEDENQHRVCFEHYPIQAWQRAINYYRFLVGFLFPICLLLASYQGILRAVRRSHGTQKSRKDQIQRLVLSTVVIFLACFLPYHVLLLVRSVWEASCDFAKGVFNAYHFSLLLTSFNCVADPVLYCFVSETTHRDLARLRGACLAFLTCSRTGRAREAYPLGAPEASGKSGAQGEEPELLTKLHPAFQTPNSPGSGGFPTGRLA

In the next assay the test system is Spheroids. Briefly: pH dependent tumoroid growth. The conditions noted are these: pH 6.2 vs pH 8 buffered media, 3 days. The assay is classed as cell-based. As to the method: Spheroids were formed over 3 days using low attachment 96-well round bottom plates and then treated with DMSO or OGM2 in either pH 8 buffered media or pH 6.2 buffered media and grown for 3 days. The size (area) of spheroids was measured in relative area units. […] This increase in growth was abrogated by OGM2.

In a further assay the test system is A2058 melanoma cell line. Briefly: scratch assay for migration, A2058. In kind it is cell-based, human. Particulars: OGM 5 μM, EIPA 10 μM, 20 hours. The procedure: as §2, §3, §4
In assay [5] the test system is U87 glioblastoma spheroids. Nature of the assay: matrix invasion of U87 spheroids in Matrigel, acidified media. The assay is classed as cell-based. The source says:
U87 glioblastoma spheroids were formed in low attachment round bottom plates for 3 days. Spheroids were then covered in Matrigel™, which was allowed to polymerize before treatment with acidified media with or without OGM2. Acidification increased the degree of matrix invasion which is attenuated by OGM2.

Another assay has as its system breast (MDA MB231). Briefly: viability (cell titer blue), breast cancer cells. The assay is classed as cell-based. Particulars: MDA MB231, 72 hours. The procedure: as §1
(The colour change of resazurin is a common sign of viable cells or microbes.)

The subject of another assay is U87 glioblastoma cells. Nature of the assay: calcium release on acidification in U87 cells (Fluo-8). The assay is classed as cell-based. Particulars: media pH6.4, Fluo-8. The source says: GPR68 is known to signal through Gq which results in a calcium flux out of the Endoplasmic reticulum. U87 glioblastoma cells were stained, using a calcium-sensitive vital dye Fluo-8, and stimulated with acidification of the media to pH6.4. The cells respond to the acidification with a burst of calcium release, this is inhibited by OGM2.

For assay [6], the system named is A549 lung cancer cells. Nature of the assay: A549 clonogenicity (crystal violet). The assay is classed as cell-based. The conditions noted are these: 8 days. The procedure:
A549 lung cancer cells were plated at 300 cells per well in a 6-well plate and on the next day were treated with increasing concentrations of OGM2 for 8 days. The plate was fixed with formalin and stained with crystal violet. See FIG. 25B for results at the indicated concentrations.

For assay [7], the system named is PANC02 pancreatic cells. Briefly: PANC02 scratch migration. The assay is classed as cell-based. The conditions noted are these: 10 μM, 24 hours. The procedure:
In a second study, PANC02 pancreatic cells plated and grown to confluence. Using a P200 tip, cells were denuded and allowed to migrate for 24 hours in DMSO or 10 μM OGM2 and imaged.

The subject of assay [8] is PANC02 pancreatic cells. Briefly: PANC02 clonogenicity (crystal violet). The assay is classed as cell-based. The conditions noted are these: 7 days. The procedure:
In a third study, PANC02 pancreatic cells were plated at 400 cells per well in a 6-well plate and on the next day were treated with increasing concentrations of OGM2 for 7 days. The plate was fixed with formalin and stained with crystal violet.

Structures are written as SMILES.

T1 sequence (Q15743 whole entry, looked up): as the sequence (Q15743 whole entry) above

In general, IC50 refers to the concentration needed to halve the response being measured. In general, EC50 refers to the concentration giving half of the maximal effect. As for `CCc1ccc2c(c1)C1(NN=C(c3ccccc3)S1)C(=O)N2` (centres unmarked) [OGM2], the “toxicity (cell viability)” value with A549 lung cancer cells [1] is recorded as “relatively High doses of OGM2 are necessary for toxicity”. The viability entry (in assay [2]; in the assay with breast (MDA MB231)) was “Reduces Viability” in each case. The “migration in scratch assay” value in the assay on WM115 melanoma cell line, in the assay on MeWo melanoma cell line and with A2058 melanoma cell line was “migrated significantly less” each time. On GPR68 [3] (10 μM for 4 hours, then removed), the “recovery of GPR68 activity after washout” value is “restored rapidly after washout of inhibitor”. Also, the “Time till 50% max (recovery of GPR68 activity)” value on GPR68 [3] (after 10 μM for 4 hours, washout, pH 6.4 medium) is around 52 min. The molecule further gave an IC50 on GPR68 [4] of 710 nM. In the assay with U87 cells, the “cell viability in combination with temozolomide (TMZ)” value is “synergistic result”. The EC50 on GPR68/OGR1 worked out at 1350 nM. The “increase in spheroid growth at pH 6.2” value with Spheroids is on record as “abrogated”. Moreover, the “degree of matrix invasion” value in assay [5] is listed as “attenuated”. Moreover, the “calcium release in response to acidification” value in the assay with U87 glioblastoma cells is reported as “inhibited”. Also, the clonogenicity result with A549 lung cancer cells [6] and with PANC02 pancreatic cells [8] was “reduced the clonogenicity” in each case. In the assay with PANC02 pancreatic cells [7], the migration entry is “significantly reduced migration”.

The values above are taken from patent publication US12194027B2, “Small molecule inhibitors of GPCR GPR68 and related receptors for treating cancer, glioblastoma, and other indications” (UNIVERSITY OF MARYLAND, BALTIMORE, priority 2019, dated 2025).
